Reference: patent US20010056085A1, “Methods of using vesicant drug formulations” (priority 1996, published 2001)
Where two headings read alike, the source gives them in different places.

Experiment: Half-life of ADR destruction by UVA light in the presence of test compounds (decrease in absorbance at 480 nm)
Type: physicochemical
[1] = UVA light, 100 μM test compound with 0.5 μM riboflavin
[2] = UVA light, 100 μM test compound alone

Compound	Half-Life of ADR Destruction, 100 μM Test Compound and 0.5 μM Riboflavin [1] [min]	Half-Life of ADR Destruction, 100 μM Test Compound [2] [min]	also measured
CNc1ccc(C(=O)O)cc1 [4-(Methylamino) Benzoic Acid]	75.3	–	–
CCc1c(C)c[nH]c1C [2,4-Dimethyl-3-ethyl Pyrrole]	20.1	–	–
Cc1ccc2[nH]c(C)cc2c1 [2,5-Dimethyl Indole]	5.79	17.7	–
O=S(O)c1ccccc1 [Benzenesulfinic acid]	15.8	–	–
O=C(O)c1ccc(O)cc1 [4-Hydroxy Benzoic Acid]	100.3	–	–
Nc1cccc(S(=O)(=O)c2cccc(N)c2)c1 [3,3′-Diamino Phenylsulfone]	–	–	Half-Life of ADR Destruction, 100 μM Test Compound and 0.5 μM Riboflavin: 3.81 min
COc1cccc(C(C)=O)c1 [3′-Methoxyacetophenone]	33.4	33.4	–
COc1ccc2c(C)c(C)[nH]c2c1 [6-Methoxy-2,3-dimethyl Indole]	23.2	43.0	–
O=S(=O)(O)c1ccc2ccccc2c1 [2-Naphthalenesulfonic acid]	–	42.0	–
COc1cc(/C=C/CO)ccc1O[C@@H]1O[C@H](CO)[C@@H](O)[C@H](O)[C@H]1O [Coniferin]	15.1	50.2	–
NC(=O)c1cccc(N)c1 [3-Aminobenzamide]	6.87 ± 1.20	–	–
COc1ccc2cc[nH]c2c1 [6-Methoxy Indole]	6.27	33.5	–
O=C(O)CCCc1ccc2ccccc2c1 [4-(2-Naphthyl)butyric acid]	15.1	43.0	–
CC(C(=O)O)c1ccc(C(=O)c2ccccc2)s1 (stereo not shown) [Tiaprofenic Acid, 2-Benzoyl-5-(x-methyl)-thiopheneacetic acid, reference compound]	3.24	3.20	–
OCCCc1ccccc1 [3-Phenyl-1-Propanol]	43.0	50.2	–
COc1ccc(CCCC(=O)O)cc1 [4-(4-Methoxyphenyl) Butyric Acid]	10.8	–	–
COc1ccccc1O [2-Methoxy Phenol]	50.2	50.2	–
O=C(Oc1ccc2[nH]ccc2c1)c1ccccc1 [5-Benzoyloxy Indole]	43.0	–	–
OCCc1ccccc1 [Phenylethyl Alcohol]	–	43.0	–
COc1ccc(C(=O)c2cccs2)cc1 [2-(4-Methoxybenzoyl)-thiophene]	8.36	9.41	–
O=C(/C=C/c1ccc(O)c(O)c1)O[C@@H]1C[C@](O)(C(=O)O)C[C@@H](O)[C@H]1O [3-Caffeolyquinic Acid]	100.3	100.3	–
Cc1ccc(C)[nH]1 [2,5-Dimethyl Pyrrole]	9.12	–	–
Nc1ccc(C(=O)c2cccc(N)c2)cc1 [3,4′-Diamino-benzophenone]	15.8	–	–
COc1ccc2[nH]c(C)c(CC(=O)O)c2c1 [5-Methoxy-2-methylindole-3-acetic acid]	4.78	25.1	–
Nc1cc[nH]c(=O)n1 [Cytosine]	43.0	50.2	–
COc1ccc(C=CC(=O)O)cc1 [4-Methoxy Cinnamic Acid]	5.90	75.3	–
COc1ccc(C=C(C)C=O)cc1 [4-Methoxy-α-Methyl Cinnamaldehyde]	20.1	–	–

Compound	Half-Life of ADR Destruction, 100 μM Test Compound and 0.5 μM Riboflavin [1] [min]	Half-Life of ADR Destruction, 100 μM Test Compound [2] [min]	also measured
COc1ccc(C(C)=O)c(O)c1 [2′-Hydroxy-4-methoxyaceotphenone]	–	–	Half-Life of ADR Destruction, 100 μM Test Compound: 75.3 min
Cc1cc2nc3[nH]c(=O)[nH]c(=O)c3nc2cc1C [Lumichrome]	–	–	Half-Life of ADR Destruction, 100 μM Test Compound: 6.02 min; Half-Life of ADR Destruction, 100 μM Test Compound and 0.5 μM Riboflavin: 3.86 min
OCc1cccc2ccccc12 [1-Naphthalenemethanol]	50.2	–	–
Nc1cc2ccccc2cc1C(=O)O [3-Atninonaphthalene-2-carboxylic acid]	50.2	75.3	–
COc1ccc2[nH]cc(CCO)c2c1 [5-Methoxy-3-indoleethanol]	9.12	33.5	–
O=C(O)Cc1ccc2ccccc2c1 [Naphthalene-2-acetic acid]	30.1	75.3	–
COc1ccc2cc(CCC(C)=O)ccc2c1 [Nabumetone, 4-(6-Methoxy-2-naphthyl)-butan-2-one, reference compound]	8.6	27.4	Half-Life of ADR Destruction, 100 μM Test Compound and 0.5 μM Riboflavin (UVA light, 100 μM test compound with 0.5 μM riboflavin, listed as 4-(6-Methoxy-2-naphthyl)-butan-2-one (Nabumetone)): 8.60 min
O=C(c1ccccc1)c1ccncc1 [4-Benzoylpyridine]	11.6	17.2 ± 1.9	–
C1=CCNC1 [Compound 3-Pyrroline, 3-Pyrroline]	43.0	–	–
O=C(O)c1ccc2ccccc2c1 [Naphthalene-2-carboxylic acid]	43.0	50.2	–
O=C(c1ccc(C(=O)O)c(C(=O)O)c1)c1ccc(C(=O)O)c(C(=O)O)c1 [3,3′,4,4′-Benzophenone-tetracarboxylic acid]	–	43.0	–
O=c1[nH]c(=O)c2[nH]c(=O)[nH]c2[nH]1 [Uric acid]	21.5	–	–
Nc1ccc(Oc2ccccc2)cc1 [4-Phenoxyaniline]	15.1	75.3	–
c1ccc2c(c1)CCc1ccccc1N2 [Iminodibenzyl]	23.2	–	–
O=C(O)c1cc2c(cc1C(=O)O)C(=O)c1ccccc1C2=O [Anthraquinone-2,3-dicarboxylic acid]	–	1.57	–
NC(=O)Cc1c[nH]c2ccccc12 [Indole-3-acetamide]	11.2	–	–
CC=Cc1ccccc1O [2-Propenyl Phenol]	–	–	Half-Life of ADR Destruction, 100 μM Test Compound: 50.2 min
O=C1c2ccccc2-c2ncccc21 [4-Aza-9-fluorenone]	50.2	–	–
CN(C)c1ccc(CC(=O)O)cc1 [4-(Dimethylamino) Phenylacetic acid]	100.3	–	–
O=C(O)CCC(=O)c1ccc(-c2ccccc2)cc1 [Fenbufen, reference compound]	12.0	12.5	–
COc1ccccc1C(C)=O [2′-Methoxyacetophenone]	21.5	25.1	–
COc1ccc(CCC(=O)O)cc1 [3-(4-Methoxyphenyl) Propionic Acid]	12.5	75.3	–
Cn1ccc2ccccc21 [N-ω-methyl-indole]	20.1	–	–
CN1C(C(=O)Nc2ccccn2)=C(O)c2ccccc2S1(=O)=O [Piroxicam, reference compound]	10.4	100.3	–
COc1ccc(CCCO)cc1OC [3-(3,4-Dimethoxyphenyl)-1-Propanol]	4.78	43.0	–
c1ccc2occc2c1 [Benzofuran]	75.3	–	–
Nc1cc(C(=O)O)ccc1O [3-Amino-4-Hydroxy Benzoic Acid]	75.3	–	–
